Assay results reported in patent publication US8759357B2, “Inhibitors of fatty acid binding protein (FABP)” (Merck Sharp & Dohme Corp., priority 2009, dated 2014).
pKd: −log10 of the molar value.

How the values were obtained:
FABP4 = FABP4 (Homo sapiens, UniProt P15090); test: TdF (Temperature Dependence Fluorescence) thermal shift assay for FABP4; type: binding; conditions: 3 μM protein; 15, 50 or 100 μM compound; Kd from ΔTm
Description: TdF (Temperature Dependence Fluorescence) Assay for FABP3 and FABP4
The SAR (Structure Activity Relationship) for FABP3 and FABP4 ligands covered by this invention was interrogated using the TdF (Temperature Dependence Fluorescence) assay or best known as thermal shift assay (M. W. Pantoliana et al, J. Biomol. Screen 6 (2001) 429-440). The TdF assay was mainly conducted in the 96-well based CHROMO-4 real time fluorescence plate reader (BioRad). The Sypro Orange (Sigma-Aldrich), environmentally sensitive fluorescence dye, was used to monitor the protein folding-unfolding transition. Protein-ligand binding was gauged by the change (or shift) in the unfolding transition temperature (ΔTm) acquired at protein alone with respect to protein in the presence of ligand of interest.
The compound of interest was first prepared in DMSO stock (typical concentration: 10 mM). Sample of 20 μL was then added into the 96-well PCR plate, where it consisted of 3 μM protein (FABP4 or FABP3) and 15, 50 or 100 μM compound (depending on compound's solubility) in buffer (25 mM HEPES, 150 mM NaCl, pH=7.5 and 1 mM DTT) incorporated with Sypro Orange dye (5× final concentration). Final percentage of DMSO resided in the sample was 2%. The sample plate was heated from 30° C. to 90° C. with thermal ramping rate of 1° C./min. The fluorescence signals were acquired with excitation and emission wavelengths centered at 490 and 560 nm respectively. The instrument thermal stability was ±0.2° C. The melting Temperatures™ for FABP4 and FABP3 proteins under aforementioned conditions occurred at 61.0±0.2° C. and 64.8±0.2° C. respectively.
Theoretical Basis for TdF-Based Ligand Binding Affinity Constant
The derivation of TdF-based ligand binding affinity constant (Kd) followed closely those previously formulated by Brandts and Lin, Biochemistry 29 (1990) 6927-6940. In brief, the binding constant of the ligand at the Tm is expressed as below:
[formula] where T0 is the midpoint of unfolding for unliganded protein and Tm is the midpoint of unfolding in presence of ligand. [LTm] is free ligand at Tm. The ΔHu and ΔCpu are the enthalpy of unfolding and heat capacity change of unfolding for the protein respectively. The ΔCPu is proportional to the size of protein and is an approximate quantity in the above equation (empirically, ΔCpu=(MW of protein/115)*14 cal/mol*K). Following algorithm derived by Mayhood et al, (Analytical Biochemistry 345 (2005) 187-197), the T0 and ΔHu can be determined separately from nonlinear regression fitting the temperature dependent protein alone curve to the following equation: […]
Where F(T) is the observed fluorescence intensity at any temperature T, Yn and Yu are the predicted fluorescence intensities for fully folded and unfolded protein, respectively; mn and mu are slope correction for changes in Yn and Yu with respect to changes in temperature (analogously replace T0 with Tm in the above equation for liganded protein to yield Tm). The nonlinear regression fitting in general readily reaches convergence by properly constraining the initial values for the fitting parameters (e.g. the initial “guess” for the ΔHu was constrained to 120 kcal/mol; initial Yn and mn were set to 1 and zero to best represent the melting curve along the low temperature region; negative slope of −0.5 was initially chosen for mu; initial Tm was also constrained to 50° C.).
Finally, the ligand binding affinity constant at any temperature T 25° C.) can be thermodynamically connected to the preceding KL™ via
[formula] (see Brandts et al and Mayhood et al, shown above) where ΔHL (T) is the van't Hoff enthalpy of ligand binding at temperature T and ΔCpL is the heat capacity upon ligand binding. For simplicity, the ΔCpL and ΔHL (T) were set to zero and −7 kcal/mol respectively. […]

FABP5 = FABP5 (Homo sapiens, UniProt Q01469); test: TdCD (Temperature-Dependent Circular Dichroism) assay for FABP5; type: binding; conditions: compounds at 50 μM and 25 μM; Kd calculated at T=20° C.; 50% uncertainty
FABP5, sequence (Q01469 whole entry): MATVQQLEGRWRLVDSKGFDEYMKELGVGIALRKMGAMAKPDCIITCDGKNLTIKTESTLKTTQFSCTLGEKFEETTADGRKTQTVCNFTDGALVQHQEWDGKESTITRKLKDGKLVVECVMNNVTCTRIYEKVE
Description: [formula] (see Brandts et al and Mayhood et al, shown above) where ΔHL (T) is the van't Hoff enthalpy of ligand binding at temperature T and ΔCpL is the heat capacity upon ligand binding. For simplicity, the ΔCpL and ΔHL (T) were set to zero and −7 kcal/mol respectively. (The ΔCpL accounts for minimal portion of total protein-ligand binding energetics and is therefore set to zero (For example, see Hossein Naghibi et al, Proc. Natl. Acad. Sci. 92, 5597-5599 (1995), where ΔCpL was estimated to ˜2% of ΔHL at 25° C. obtained from calorimetric study of binding Rnase A and 2′-CMP)). TdCD (Temperature-Dependent Circular Dichroism) Assay for FABP3/4/5
JASCO 810 spectropolarimeter was used to measure Circular Dichroism (CD) spectra and temperature-dependent protein unfolding profiles. The instrument is equipped with a 6-cell piezoelectric temperature controller. Ellipticity was monitored at 226 nm as a function of temperature with a 1 mm path length cell. The scan rate was 1° C./min with a 4 s response time and 30 s equilibration between measurements.
Stock protein FABP5 (3.5 mgs/mL), FABP4 (1.8 mgs/mL) and FABP3 (3 mgs/mL) were diluted to 10-15 μM with 25 mM HEPES pH 7.5, 150 mM NaCl, 1 mM DTT. 10 mM stocks of individual compounds were made in 100% DMSO. The compounds were tested at 50 μM and 25 μM concentrations. DMSO was added to protein-alone (apo) samples to 1% to compensate for DMSO amounts in protein+ligand samples. Data were analyzed using Jasco software and the midpoints of the protein unfolding Transitions™, and the ligand binding constants (KL) were calculated as previously described (See, for example, Mayhood et al, Analytical Biochemistry 345 (2005) 187-197; Smith et al, Biochemistry 46 (2007) 1358-1367; Brandts et al, Biochemistry 29 (1990) 6927-6940; and Matulis et al, Biochemistry 44 (2005) 5258-5266).
Briefly, the To (midpoint of unfolding for the unliganded protein) was calculated from best fit of the unfolding data to the equation below:
[formula] Where, Yobs is the observed ellipticity value at any temperature T, Yn and Yu are the predicted ellipticity values for fully folded and unfolded species, respectively, mn and mu are slope correction for changes in Yn and Yu with respect to changes in temperature. To is the midpoint temperature at which the unliganded protein unfolds and ΔHu and ΔCpu are the heat of unfolding and heat capacity of unfolding, respectively for the unliganded species.
In presence of ligand, the midpoint Temperature™ defines where the equilibrium concentrations of unfolded and folded species are equal. Incorporation of the unliganded free energy of binding and subsequent thermodynamic substitution yielded the binding constant of the ligand at the Tm value of unfolding:
[formula] where, T0 is the midpoint of unfolding for unliganded protein and Tm is the midpoint of unfolding in presence of ligand. [LTm] is free ligand at Tm.
Based on estimates for enthalpy of binding, ΔHL (estimated to be −7 kcal/mol) and ligand binding heat capacity ΔCpL (set to be zero), the ligand binding association constant (KL) at temperature T=20° C. were calculated as below. Based on reasonable boundary change of the estimated ligand binding ΔHL, a 50% uncertainty was uniformly assigned to the calculated TdCD Kd (1/KL) values at T=20° C.

FABP4, sequence (P15090 whole entry): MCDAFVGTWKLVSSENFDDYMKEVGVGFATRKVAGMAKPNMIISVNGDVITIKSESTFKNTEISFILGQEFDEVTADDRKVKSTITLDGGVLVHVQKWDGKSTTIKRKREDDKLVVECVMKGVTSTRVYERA

SMILES | pKd (FABP4) | pKd (FABP5)
CC(OCc1cc(=O)n2nc(-c3ccccc3)nc2[nH]1)C1CCCCC1 (stereo not shown) [1-124] | 6.70 to 9.00 | 4.00 to 6.30
CC(OCc1cc(=O)n2nc(-c3ccccc3)nc2[nH]1)c1ccccc1Cl (stereo not shown) [1-117] | 6.70 to 9.00 | 4.00 to 6.30
O=c1cc(COCC2(c3cccc(C(F)(F)F)c3)CC2)[nH]c2nc(-c3ccccc3)nn12 [1-129] | 6.70 to 9.00 | 4.00 to 6.30
C=CCC(OCc1cc(=O)n2nc(-c3ccccc3)nc2[nH]1)c1ccccc1Cl (stereo not shown) [1-130] | 6.70 to 9.00 | 4.00 to 6.30
O=c1cc(COCC2CCCCC2)[nH]c2nc(-c3ccccc3)nn12 [1-125] | 6.70 to 9.00 | 4.00 to 6.30
O=c1cc(COC(c2ccccc2)C2CC2)[nH]c2nc(-c3ccccc3)nn12 (stereo not shown) [1-116] | 5.30 to 6.70 | 4.00 to 6.30
CC[C@H](OCc1cc(=O)n2nc(-c3ccccc3)nc2[nH]1)c1ccccc1 [1-123] | < 5.30 | 4.00 to 6.30
CC(OCc1cc(=O)n2nc(-c3ccccc3)nc2[nH]1)c1ccccc1F (stereo not shown) [1-132] | 5.30 to 6.70 | 4.00 to 6.30
O=c1cc(COCc2cccnc2F)[nH]c2nc(-c3ccccc3)nn12 [1-127] | 5.30 to 6.70 | 4.00 to 6.30
CCC[C@H](OCc1cc(=O)n2nc(-c3ccccc3)nc2[nH]1)c1ccccc1 [1-122] | < 5.30 | 4.00 to 6.30
O=c1cc(COCC2(c3cccc(F)c3)CC2)[nH]c2nc(-c3ccccc3)nn12 [1-119] | 6.70 to 9.00 | 4.00 to 6.30
O=c1cc(COC(CC2CC2)c2ccccc2)[nH]c2nc(-c3ccccc3)nn12 (stereo not shown) [1-126] | 5.30 to 6.70 | 4.00 to 6.30
CCC(OCc1cc(=O)n2nc(-c3ccccc3)nc2[nH]1)C1CCCCC1 (stereo not shown) [1-121] | 6.70 to 9.00 | 4.00 to 6.30
CN(Cc1ccc(C(F)(F)F)cc1)Cc1cc(=O)n2nc(-c3ccccc3)nc2[nH]1 [1-53] | 5.30 to 6.70 | 4.00 to 6.30
O=C(O)c1cccc(COCc2cc(=O)n3nc(-c4ccccc4)nc3[nH]2)c1 [1-133] | 5.30 to 6.70 | 4.00 to 6.30
O=c1cc(COCc2cccnc2Cl)[nH]c2nc(-c3ccccc3)nn12 [1-128] | 5.30 to 6.70 | 4.00 to 6.30
CC(C)(Cc1ccccc1)OCc1cc(=O)n2nc(-c3ccccc3)nc2[nH]1 [1-120] | 6.70 to 9.00 | 4.00 to 6.30

Continued, values first:

pKd (FABP4) | pKd (FABP5) | SMILES
6.70 to 9.00 | 4.00 to 6.30 | [2H]C([2H])([2H])OC(C(=O)NCC1(c2ccc(Cl)cc2)CCC1)(C([2H])([2H])[2H])C([2H])([2H])c1cc(=O)n2nc(-c3ccccc3)nc2[nH]1 (stereo not shown) [37-2]
< 5.30 | 4.00 to 6.30 | O=c1cc(COC(CO)c2ccccc2Cl)[nH]c2nc(-c3ccccc3)nn12 (stereo not shown) [34-2]
< 5.30 | 4.00 to 6.30 | CC(Cc1cc(=O)n2nc(-c3ccccc3)nc2[nH]1)(Oc1cccc(Cl)c1)C(=O)O (stereo not shown) [35-4]
6.70 to 9.00 | 4.00 to 6.30 | CCC(OCc1cc(=O)n2nc(-c3ccccc3)nc2[nH]1)c1ccccc1Cl (stereo not shown) [1-153]
5.30 to 6.70 | 4.00 to 6.30 | O=c1cc(COCc2ccccc2)[nH]c2nc(-c3ccccc3)nn12 [1-144]
5.30 to 6.70 | 4.00 to 6.30 | O=c1cc(CNCC2(c3cccc(C(F)(F)F)c3)CC2)[nH]c2nc(-c3ccccc3)nn12 [1-138]
6.70 to 9.00 | 4.00 to 6.30 | O=c1cc(COCc2ccccc2Cl)[nH]c2nc(-c3ccccc3)nn12 [1-154]
5.30 to 6.70 | 4.00 to 6.30 | O=c1cc(CNC2(c3cccc(C(F)(F)F)c3)CC2)[nH]c2nc(-c3ccccc3)nn12 [1-137]
6.70 to 9.00 | 4.00 to 6.30 | Cc1c(Cl)cccc1OC(C)(C)COCc1cc(=O)n2nc(-c3ccccc3)nc2[nH]1 [27-3]
6.70 to 9.00 | 4.00 to 6.30 | COC(C)(Cc1cc(=O)n2nc(-c3ccccc3)nc2[nH]1)C(=O)NCC1(c2ccc(Cl)cc2)CCC1 (stereo not shown) [36-2]
5.30 to 6.70 | 4.00 to 6.30 | O=c1cc(COCc2cccc(Cl)c2Cl)[nH]c2nc(-c3ccccc3)nn12 [1-145]
< 5.30 | 4.00 to 6.30 | O=c1cc(COCC(O)c2ccccc2Cl)[nH]c2nc(-c3ccccc3)nn12 (stereo not shown) [34-1]
< 5.30 | 4.00 to 6.30 | O=c1cc(COCc2ccccc2C(F)(F)F)[nH]c2nc(-c3ccccc3)nn12 [1-140]
6.70 to 9.00 | 4.00 to 6.30 | CC(Cc1cc(=O)n2nc(-c3ccccc3)nc2[nH]1)(Oc1cccc(Cl)c1)C(=O)NCC1(c2ccccc2Cl)CC1 (stereo not shown) [35-5]
6.70 to 9.00 | 4.00 to 6.30 | Cc1ccccc1OC(C)(C)COCc1cc(=O)n2nc(-c3ccccc3)nc2[nH]1 [27-4]
